The nature of data set [1]: Log D by shake flask method (octanol / PBS pH 7.4, HPLC). To be noted: octanol / PBS pH 7.4, shake flask; read-out: logD. In kind it is physicochemical. Summed up:
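Log D is derived by HPLC measurement of how the compound distributes between octanol and pH 7.4 phosphate-buffered saline in a shake flask.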

Data set [2] deals with T1, recombinant human transglutaminase 2 (Homo sapiens, UniProt P21980).
T1 sequence (P21980 1-687): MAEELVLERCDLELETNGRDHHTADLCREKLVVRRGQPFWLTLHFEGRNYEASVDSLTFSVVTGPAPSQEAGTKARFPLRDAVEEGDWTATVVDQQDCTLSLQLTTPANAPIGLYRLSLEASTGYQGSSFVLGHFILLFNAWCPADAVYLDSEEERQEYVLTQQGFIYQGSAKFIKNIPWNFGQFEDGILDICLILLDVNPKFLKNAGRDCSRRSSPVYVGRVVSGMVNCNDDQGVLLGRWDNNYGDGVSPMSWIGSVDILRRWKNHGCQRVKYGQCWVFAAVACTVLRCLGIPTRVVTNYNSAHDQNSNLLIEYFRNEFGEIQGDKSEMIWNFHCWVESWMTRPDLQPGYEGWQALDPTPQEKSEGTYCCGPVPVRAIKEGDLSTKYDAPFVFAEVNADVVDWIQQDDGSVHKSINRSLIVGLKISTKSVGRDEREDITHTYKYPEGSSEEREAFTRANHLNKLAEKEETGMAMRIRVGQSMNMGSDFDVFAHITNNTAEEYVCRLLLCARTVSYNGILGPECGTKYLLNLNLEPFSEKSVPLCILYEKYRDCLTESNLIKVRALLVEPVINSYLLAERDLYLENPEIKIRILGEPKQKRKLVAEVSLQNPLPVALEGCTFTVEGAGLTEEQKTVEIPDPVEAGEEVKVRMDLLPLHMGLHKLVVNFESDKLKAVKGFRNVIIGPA
The data set is described as follows: Transglutaminase assay: incorporation of dansylcadaverine into dimethylcasein (DCC-assay). The format is biochemical. In outline: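 Recombinant human TG2 (10 nM final) incorporates dansylcadaverine (16.7 μM) into N,N-dimethylcasein (4 μM) in Tris-HCl buffer, pH 8.0, with 10 mM CaCl2 and 10 mM glutathione. Fluorescence (λex 330, λem 500 nm) followed 30 min. The slope between 20–30 min gives activity versus DMSO control, and IC50 comes from the concentration–activity plot.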

The nature of data set [3]: Caco-2 permeability assay (CacoReady kit). The following applies: human. In kind it is in vitro ADME. In outline:
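Caco-2 monolayer barrier, commercial ready-to-use kit, manufacturer protocol. Read-out: Papp.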
In general terms: Caco-2 monolayers are a common model of the intestinal barrier.

[4] abbreviates: recombinant human TG2 10 nM, dansylcadaverine/dimethylcasein, read-out: IC50 TG2.

Like-named read-outs stand apart in the source and are kept apart here.

In general, logD refers to the decadic logarithm of the distribution of all forms, ionised or not, between an organic phase and buffer at a given pH. The IC50 is the concentration that inhibits the measured activity by half. Broadly, the Papp is the rate of passage across a membrane or cell layer, normalised by area and donor concentration. Read a low Papp as slow passage.

On to `CCNC(=O)C(=O)CC[C@H](NC(=O)c1oc2ccccc2c1C)C(=O)Nc1cccn(CC(=O)NC23CC(C2)C3)c1=O` [Compound I-88, (S)-N1-(1-(2-(bicyclo[1.1.1]pentan-1-ylamino)-2-oxoethyl)-2-oxo-1,2-dihydropyridin-3-yl)-N6-ethyl-2-(3-methylbenzofuran-2-carboxamido)-5-oxohexanediamide], for which the pH-dependent lipophilicity (logD) in data set [1] is under 1. The IC50 in data set [2] (setting [4]) is under 150 nM. The Papp in data set [3] is 1 to 10 ×10⁻⁶ cm/s.
The corresponding values for `CCNC(=O)C(=O)CC[C@H](NC(=O)c1nonc1N)C(=O)Nc1cccn(CC(=O)NC23CC(C2)C3)c1=O` [Compound I-108, (S)-2-(4-amino-1,2,5-oxadiazole-3-carboxamido)-N1-(1-(2-(bicyclo[1.1.1]pentan-1-ylamino)-2-oxoethyl)-2-oxo-1,2-dihydropyridin-3-yl)-N6-ethyl-5-oxohexanediamide] are under 1, 600 to 3500 nM and under 1 ×10⁻⁶ cm/s.
For the compound `CCNC(=O)C(=O)CC[C@H](NC(=O)c1cccnn1)C(=O)Nc1cccn(CC(=O)N[C@@H]2C[C@@H]3C=C[C@H]2C3)c1=O` [Compound I-73, (S)-N1-(1-(2-((1R,2R,4R)-bicyclo[2.2.1]hept-5-en-2-ylamino)-2-oxoethyl)-2-oxo-1,2-dihydropyridin-3-yl)-N6-ethyl-5-oxo-2-(pyridazine-3-carboxamido)hexanediamide], in data set [1], the logD is under 1. Also, the IC50 in data set [2] (setting [4]) was 150 to 600 nM. For the same compound, the apparent permeability coefficient (Papp) in data set [3] was under 1 ×10⁻⁶ cm/s.
In the case of `CCNC(=O)C(=O)CC[C@H](NC(=O)c1ccc2c(c1)CC(=O)NC2)C(=O)Nc1cccn(CC(=O)NC2(C(=O)O)C3CC4CC2CC(C(F)(F)F)(C4)C3)c1=O` (stereo partly drawn) [Compound I-105, (S)-N1-ethyl-N6-(1-(2-(2-carboxy-2-amino-5-(trifluoromethyl)adamantane)-2-oxoethyl)-2-oxo-1,2-dihydropyridin-3-yl)-2-oxo-5-(3-oxo-1,2,3,4-tetrahydroisoquinoline-6-carboxamido)hexanediamide], the logD in data set [1] was under 1. Moreover, in data set [2] (setting [4]), the IC50 was in the range of 600 to 3500 nM. For the same compound, in data set [3], the Papp is under 1 ×10⁻⁶ cm/s.
Turning to `CCNC(=O)C(=O)CC[C@H](NC(=O)c1oc2ccccc2c1C)C(=O)Nc1cccn(CC(=O)N[C@@H]2C[C@H]3CC[C@@H]2C3)c1=O` [Compound I-70, (S)-N1-(1-(2-((1R,2R,4S)-bicyclo[2.2.1]heptan-2-ylamino)-2-oxoethyl)-2-oxo-1,2-dihydropyridin-3-yl)-N6-ethyl-2-(3-methylbenzofuran-2-carboxamido)-5-oxohexanediamide], the log distribution coefficient (logD) in data set [1] lay in the range of 1 to 3. In data set [2] (setting [4]), the IC50 is under 150 nM. The apparent permeability (Papp) in data set [3] fell in the range of 1 to 10 ×10⁻⁶ cm/s.
With `CCNC(=O)C(=O)CC[C@H](NC(=O)c1sc(Br)cc1C)C(=O)Nc1cccn(CC(=O)NC2C3CC4CC(C3)CC2C4)c1=O` (stereo partly drawn) [Compound I-43, (S)-2-(5-bromo-3-methylthiophene-2-carboxamido)-N6-ethyl-N1-(1-(2-(2-adamantylamino)-2-oxoethyl)-2-oxo-1,2-dihydropyridin-3-yl)-5-oxohexanediamide], the logD in data set [1] was 3 to 5. Besides, the IC50 in data set [2] (setting [4]) was under 150 nM. Further, in data set [3], the apparent permeability (Papp) lay within 1 to 10 ×10⁻⁶ cm/s.
The corresponding values for `CCNC(=O)C(=O)CC[C@H](NC(=O)c1cc2ccccc2s1)C(=O)Nc1cccn(CC(=O)NC2C3CC4CC(C3)CC2C4)c1=O` (stereo partly drawn) [Compound I-34, (S)-2-(benzo[b]thiophene-2-carboxamido)-N6-ethyl-N1-(1-(2-(2-adamantylamino)-2-oxoethyl)-2-oxo-1,2-dihydropyridin-3-yl)-5-oxohexanediamide] are 3 to 5, under 150 nM and 1 to 10 ×10⁻⁶ cm/s.
As to `CCNC(=O)C(=O)CC[C@H](NC(=O)c1cnc(C(C)C)o1)C(=O)Nc1cccn(CC(=O)NC23CCC(C2)C3)c1=O` [Compound I-90, (S)-N1-(1-(2-(bicyclo[2.1.1]hexan-1-ylamino)-2-oxoethyl)-2-oxo-1,2-dihydropyridin-3-yl)-N6-ethyl-2-(2-isopropyloxazole-5-carboxamido)-5-oxohexanediamide], in data set [1], the logD is under 1. For the same compound, the IC50 in data set [2] (setting [4]) was under 150 nM. In data set [3], this compound had a Papp of 1 to 10 ×10⁻⁶ cm/s.
For `CCNC(=O)C(=O)CC[C@H](NC(=O)c1cc2ccccc2o1)C(=O)Nc1cccn(CC(=O)NC2C3CC4CC(C3)CC2C4)c1=O` (stereo partly drawn) [Compound I-30, (S)-2-(benzofuran-2-carboxamido)-N6-ethyl-N1-(1-(2-(2-adamantylamino)-2-oxoethyl)-2-oxo-1,2-dihydropyridin-3-yl)-5-oxohexanediamide], the logD in data set [1] lay within 3 to 5. Besides, the IC50 in data set [2] (setting [4]) is under 150 nM. The compound also displayed a Papp in data set [3] of 1 to 10 ×10⁻⁶ cm/s.
With `CCNC(=O)C(=O)CC[C@H](NC(=O)c1cn(C)cn1)C(=O)Nc1cccn(CC(=O)NC23CC4CC(CC(CC)(C4)C2)C3)c1=O` [Compound I-15, (S)-N1-ethyl-N6-(1-(2-(3-ethyladamantane-1-amino)-2-oxoethyl)-2-oxo-1,2-dihydropyridin-3-yl)-5-(1-methyl-1H-imidazole-4-carboxamido)-2-oxohexanediamide], the logD in data set [1] was 1 to 3. Besides, the half-inhibitory concentration (IC50) in data set [2] (setting [4]) was in the range of 600 to 3500 nM. In data set [3], this compound gave a Papp of under 1 ×10⁻⁶ cm/s.
`CCNC(=O)C(=O)CC[C@H](NC(=O)c1ccc2c(c1)CCCN2)C(=O)Nc1cccn(CC(=O)NC23CCC(C2)C3)c1=O` [Compound I-104, (S)-N1-(1-(2-(bicyclo[2.1.1]hexan-1-ylamino)-2-oxoethyl)-2-oxo-1,2-dihydropyridin-3-yl)-N6-ethyl-5-oxo-2-(1,2,3,4-tetrahydroquinoline-6-carboxamido)hexanediamide]: the logD in data set [1] is under 1. Moreover, the IC50 in data set [2] (setting [4]) is 600 to 3500 nM. In addition, the apparent permeability (Papp) in data set [3] was under 1 ×10⁻⁶ cm/s.
On to `CCNC(=O)C(=O)CC[C@H](NC(=O)c1cn(CC(C)C)cn1)C(=O)Nc1cccn(CC(=O)NC23CC4CC(CC(CC)(C4)C2)C3)c1=O` [Compound I-18, (S)-N1-ethyl-5-(1-isobutyl-1H-imidazole-4-carboxamido)-N6-(1-(2-(3-ethyladamantane-1-amino)-2-oxoethyl)-2-oxo-1,2-dihydropyridin-3-yl)-2-oxohexanediamide], for which the log distribution coefficient (logD) in data set [1] lay within 3 to 5. Further, in data set [2] (setting [4]), the IC50 was in the range of 600 to 3500 nM. This compound also had a Papp in data set [3] of under 1 ×10⁻⁶ cm/s.
On to `CCNC(=O)C(=O)CC[C@H](NC(=O)[C@H]1CCNC1)C(=O)Nc1cccn(CC(=O)NC2C3CC4CC2CC(F)(C4)C3)c1=O` (stereo partly drawn) [Compound I-59, (S)-N1-ethyl-N6-(1-(2-(5-fluoroadamantane-2-amino)-2-oxoethyl)-2-oxo-1,2-dihydropyridin-3-yl)-2-oxo-5-((S)-pyrrolidine-3-carboxamido)hexanediamide], for which the log distribution coefficient (logD) in data set [1] is under 1. In addition, in data set [2] (setting [4]), the IC50 lay in the range of 150 to 600 nM. The same compound displayed a Papp in data set [3] of under 1 ×10⁻⁶ cm/s.
For the compound `CCNC(=O)C(=O)CC[C@H](NC(=O)c1cc2ccccc2n1CC)C(=O)Nc1cccn(CC(=O)NC23CC(C2)C3)c1=O` [Compound I-102, (S)-N1-(1-(2-(bicyclo[1.1.1]pentan-1-ylamino)-2-oxoethyl)-2-oxo-1,2-dihydropyridin-3-yl)-N6-ethyl-2-(1-ethyl-1H-indole-2-carboxamido)-5-oxohexanediamide], the logD in data set [1] lay in the range of 1 to 3. Besides, the 50% inhibitory concentration (IC50) in data set [2] (setting [4]) lay within 150 to 600 nM. The compound further came in with an apparent permeability (Papp) in data set [3] of 1 to 10 ×10⁻⁶ cm/s.
On to `CCC(CC)CNC(=O)Cn1cccc(NC(=O)[C@H](CC/C=C/C(=O)OC)NC(=O)c2cncn2C)c1=O` [Ref. 2, reference compound], for which the logD in data set [1] was 1 to 3. In addition, in data set [2] (DCC-assay, ratio of IC50), the “fold more potent compared to Ref. 3” value was determined as 80 fold. Also, the IC50 in data set [2] (DCC-assay, values in text, read-out: IC50) was 53 nM; in data set [2] (setting [4]) it was under 150 nM. Further, the Papp in data set [3] was under 1 ×10⁻⁶ cm/s.

Source of the values: US20240270715A1, “INHIBITORS OF TRANSGLUTAMINASES” (ZEDIRA GMBH, priority 2021, published 2024).
